# Calls of active or inactive are those of the source. The rule behind the calls is not given here.
# Key:
# Nucleic Acid [1] = assay: Selectivity ratio of Kd for fluorescein-labeled HIV1 duplex RNA of packaging element psi to Kd for fluorescein-labeled 20mer stem loop 3 HIV1 RNA of packaging element psi; format: nucleic-acid assay; conditions: Human immunodeficiency virus 1
# Nucleic Acid [2] = assay: Binding affinity to fluorescein-labeled HIV1 duplex RNA of packaging element psi by titration method; format: nucleic-acid assay, Human immunodeficiency virus 1
# Nucleic Acid [3] = assay: Binding affinity to fluorescein-labeled 20mer stem loop 3 HIV1 RNA of packaging element psi by titration method; format: nucleic-acid assay, Human immunodeficiency virus 1
# Nucleic Acid [4] = assay: Binding affinity to fluorescein-labeled stem loop 3 HIV1 duplex RNA of packaging element psi by titration method; format: nucleic-acid assay, Human immunodeficiency virus 1
# Nucleic Acid [5] = assay: Binding affinity to fluorescein-labeled HIV1 single-stranded RNA of packaging element psi by titration method; format: nucleic-acid assay, Human immunodeficiency virus 1
# Nucleic Acid [6] = assay: Selectivity ratio of Kd for fluorescein-labeled HIV1 single-stranded RNA of packaging element psi to Kd for fluorescein-labeled 20mer stem loop 3 HIV1 RNA of packaging element psi; format: nucleic-acid assay; conditions: Human immunodeficiency virus 1
# Nucleic Acid [7] = assay: Binding affinity to unlabeled 20mer stem loop 3 HIV1 RNA of packaging element psi by titration method; format: nucleic-acid assay, Human immunodeficiency virus 1
# Nucleic Acid [8] = assay: Selectivity ratio of Kd for HIV1 single-stranded RNA to Kd for 20mer stem loop 3 HIV1 RNA; format: nucleic-acid assay; conditions: Human immunodeficiency virus 1
# Nucleic Acid [9] = assay: Binding affinity to fluorescein-labeled stem loop 3 HIV1 RNA of packaging element psi after 72 hrs by mass spectroscopy; format: nucleic-acid assay; conditions: Human immunodeficiency virus 1
# Nucleic Acid [10] = assay: Stabilization of stem loop 3 HIV1 RNA of packaging element psi assessed as protection against RNase 1-mediated cleavage at 500 uM by footprinting method; format: nucleic-acid assay; conditions: Human immunodeficiency virus 1
# Nucleic Acid [11] = assay: Binding affinity to fluorescein-labeled stem loop 2 HIV1 RNA of packaging element psi by titration method; format: nucleic-acid assay, Human immunodeficiency virus 1
# Nucleic Acid [12] = assay: Stabilization of stem loop 3 HIV1 RNA of packaging element psi assessed as melting temperature by UV spectroscopy; format: nucleic-acid assay; conditions: Human immunodeficiency virus 1
# Nucleic Acid [13] = assay: Binding affinity to weaker binding site of unlabeled stem loop 2 HIV1 RNA of packaging element psi by isothermal titration calorimetry; format: nucleic-acid assay, Human immunodeficiency virus 1
# Nucleic Acid [14] = assay: Selectivity ratio of Kd for fluorescein-labeled HIV1 duplex RNA of packaging element psi to Kd for fluorescein-labeled 14mer stem loop 3 HIV1 RNA of packaging element psi; format: nucleic-acid assay; conditions: Human immunodeficiency virus 1
# Nucleic Acid [15] = assay: Binding affinity to fluorescein-labeled 14mer stem loop 3 HIV1 RNA of packaging element psi by titration method; format: nucleic-acid assay, Human immunodeficiency virus 1
# Nucleic Acid [16] = assay: Binding affinity to strong binding site of unlabeled stem loop 2 HIV1 RNA of packaging element psi by isothermal titration calorimetry; format: nucleic-acid assay, Human immunodeficiency virus 1
# Nucleic Acid [17] = assay: Selectivity ratio of Kd for fluorescein-labeled HIV1 single-stranded RNA of packaging element psi to Kd for fluorescein-labeled 14mer stem loop 3 HIV1 RNA of packaging element psi; format: nucleic-acid assay; conditions: Human immunodeficiency virus 1
# Nucleic Acid [18] = assay: Binding affinity to stem loop 3 HIV1 RNA of packaging element psi assessed as RNA intercalation at 55 to 220 uM by CD spectroscopy; format: nucleic-acid assay; conditions: Human immunodeficiency virus 1
# Nucleic Acid [19] = assay: Binding affinity to 2-aminopurine-labeled stem loop 4 HIV1 RNA of packaging element psi by titration method; format: nucleic-acid assay, Human immunodeficiency virus 1
# [20] = Solubility in water; format: physicochemical; conditions: buffer
# [21] = Solubility in DMSO; format: physicochemical
# Nucleic Acid [22] = assay: Binding affinity to fluorescein-labeled stem loop 3 HIV1 RNA of packaging element psi by titration method; format: nucleic-acid assay; conditions: Human immunodeficiency virus 1
# Nucleic Acid [23] = assay: Binding affinity to fluorescein-labeled stem loop 4 HIV1 RNA of packaging element psi by titration method; format: nucleic-acid assay, Human immunodeficiency virus 1
# Nucleic Acid [24] = assay: Selectivity ratio of Kd for fluorescein-labeled stem loop 4 HIV1 RNA of packaging element psi to Kd for fluorescein-labeled 14mer stem loop 3 HIV1 RNA of packaging element psi; format: nucleic-acid assay; conditions: Human immunodeficiency virus 1
# Nucleic Acid [25] = assay: Selectivity ratio of Kd for fluorescein-labeled stem loop 2 HIV1 RNA of packaging element psi to Kd for fluorescein-labeled 14mer stem loop 3 HIV1 RNA of packaging element psi; format: nucleic-acid assay; conditions: Human immunodeficiency virus 1
# Nucleic Acid [26] = assay: Binding affinity to stem loop 3 HIV1 RNA of packaging element psi assessed as RNA intercalation at 55 to 110 uM by CD spectroscopy; format: nucleic-acid assay; conditions: Human immunodeficiency virus 1
smiles,measurement,setting,value
C[N+](C)(C)CCN[N+]1(C)CCCc2ccccc21 (stereo unspecified),Selectivity ratio,Nucleic Acid [1],4
same,Kd,Nucleic Acid [2],6.1 µM
same,Kd,Nucleic Acid [3],1.5 µM
same,Kd,Nucleic Acid [4]; read-out: Kd,14 µM
same,Kd,Nucleic Acid [5],7.8 µM
same,Selectivity ratio,Nucleic Acid [6],4
CN(C)c1ncnc2c1ncn2CCn1cnc2ncnc(N(C)C)c21,Kd,Nucleic Acid [7],32 µM
C[N+]1(C)CCc2cc(O)c(O)cc2C1Cc1ccc(O)c(O)c1 (stereo unspecified),Kd,Nucleic Acid [3],135 µM
O=C1Oc2ccccc2C(=O)/C1=C/N1C(=O)N/C(=C\c2ccccc2O)C1=O,Kd,Nucleic Acid [3],163 µM
COc1ccc2nc3cc(Cl)ccc3c(Nc3ccc(O)c(CN4CCN(C)CC4)c3)c2c1,Kd,Nucleic Acid [2],0.87 µM
same,Kd,Nucleic Acid [3],0.67 µM
same,Selectivity ratio,Nucleic Acid [8],4.4
same,Kd,Nucleic Acid [5],3 µM
COC1=C(C)C(=O)c2c(c(COC(N)=O)c3n2CC2C3N2C)C1=O (stereo unspecified),Activity,Nucleic Acid [9],Active
same,Activity,Nucleic Acid [10],Active
same,Kd,Nucleic Acid [11],Not Active
same,Kd,Nucleic Acid [2],345 µM
same,Tm,Nucleic Acid [12],79.2 °C
same,Kd,Nucleic Acid [13],11000 µM
same,Selectivity ratio,Nucleic Acid [14],3.5
same,Kd,Nucleic Acid [15],98 µM
same,Kd,Nucleic Acid [5],> 4900 µM
same,Kd,Nucleic Acid [16],110 µM
same,Selectivity ratio,Nucleic Acid [17],50
same,Activity,Nucleic Acid [18],Active
same,Kd,Nucleic Acid [19],79 µM
C[N+]1(C)C2CC(OC(=O)C(CO)c3ccccc3)CC1C1OC12 (stereo unspecified),Kd,Nucleic Acid [15],157 µM
Cc1ccn2c(CCc3nnc4cc(C)ccn34)nnc2c1,solubility,[20],Insoluble
same,solubility,[21],Insoluble
Cn1c(N)nc2c(nc(OCc3ccccc3)n2[C@@H]2O[C@H](CO)[C@@H](O)[C@@H]2O)c1=O,Activity,Nucleic Acid [22],inactive
CCOC(=O)c1c2c(n3ccccc13)C(=O)c1ccccc1C2=O,Selectivity ratio,Nucleic Acid [1],2
same,Kd,Nucleic Acid [2],3 µM
same,Kd,Nucleic Acid [3],1.4 µM
same,Kd,Nucleic Acid [4],Not Active
same,Kd,Nucleic Acid [5],2.3 µM
same,Selectivity ratio,Nucleic Acid [6],2
Cc1cc(N2CCN(C)CC2)n2nc(-c3ccc(Cl)cc3)nc2n1,Activity,Nucleic Acid [10],Active
same,Kd,Nucleic Acid [23],70 µM
same,Kd,Nucleic Acid [11]; read-out: Kd,46 µM
same,Kd,Nucleic Acid [2],69 µM
same,Tm,Nucleic Acid [12],78.2 °C
same,Kd,Nucleic Acid [13],2250 µM
same,Selectivity ratio,Nucleic Acid [14],5
same,Kd,Nucleic Acid [4]; read-out: Kd,58 µM
same,Kd,Nucleic Acid [15],11 µM
same,Kd,Nucleic Acid [5],276 µM
same,Selectivity ratio,Nucleic Acid [24],7
same,Selectivity ratio,Nucleic Acid [25],4
same,Kd,Nucleic Acid [16],15 µM
same,Selectivity ratio,Nucleic Acid [17],25
same,Activity,Nucleic Acid [26],inactive
